In patent US6683052B1, “Lipopeptides containing an interferon-γ fragment, and uses thereof in pharmaceutical compositions” (Institut National de la Sante et de la Recherche Medicale …, priority 1998, dated 2004):
The star is where a group is joined. Palmitoyl = CCCCCCCCCCCCCCCC(=O)*

Key:
COLO 205 human cell line = assay: Induction of HLA-DR on COLO 205 cells by lipopeptide fragments (FIG. 12B); format: cell-based
Method: (§1) Fresh splenocytes are obtained from 7-week-old female 129 Sv mice. The COLO 205 human colon carcinoma lines are obtained from the ATCC (American Type Culture Collection). The splenocytes and COLO 205 cells are maintained in RPMI 1640 (Gibco BRL, Courbevoie, France), supplemented with 10% FCS (Gibco BRL), sodium pyruvate (Sigma, St. Louis, USA) and incubated at 37° C. in 5% CO2.
(§2) The cells were stimulated for 24 hours with different concentrations of MuL, L-mIFNγ 113-132, L-mIFNγ 122-132 or MuSL. The murine splenocytes and COLO 205 cells were labelled for the expression of II MHC with 1 μg of anti-mouse IA^b FITC monoclonal antibody (mAb) (Pharmingen, San Diego, USA) and 10 μl of anti-HLA-DR clone TAL.1B5 mouse FITC mAb (Cymbus Biotechnology Ltd, Hants, UK), respectively. A negative control mouse FITC IgG1 (DAKO S. A., Trappes, France) was used as control isotype. The cells were incubated for 1 hour at 4° C. in PBS, 10% FCS and then washed, and the expression of II MHC was analysed by flow cytometry using a Coulter EPILS II cytometer (Coulter, Hialeah, Fla., USA) at a rate of 10,000 events per sample.
(§3) FIG. 12: Induction of class II CMH molecules by human or murine cells stimulated with lipopeptides derived from IFN-γ. The murine splenocytes (A) and the COLO 205 human cell line (B) were incubated for 24 hours with different concentrations of lipopeptides derived from IFN-γ. The cells were labelled with a monoclonal antibody directed against the class II CMH molecules, and analysed by flow cytometry. The ratio between the average fluorescence intensity of the cells treated with the lipopeptides and between the average fluorescence intensity of the untreated cells is indicated on the y-axis. The lipopeptide concentration is indicated in μM on the x-axis; MuL: solid circles; MuSL : hollow circles; L-mIFN 113-132: triangles; L-mIFN 122-132: X.

murine splenocytes = assay: Induction of class II CMH molecules (IA^b) on murine splenocytes by lipopeptide fragments (FIG. 12A); format: cell-based, 129 Sv mice
Method: as §1, §2, §3

[1] = test system: murine splenocytes and COLO 205 cells; assay: Cytotoxicity at high lipopeptide concentrations; format: cell-based

Substance: L-mIFN-γ 113-132: fragment 113-132 of murine IFNγ, carboxamide end, N-terminal Ac-K(Pam) group (Ac-K(Palmitoyl)IRVVHQLLPESSLRKRKRSR-NH2; SMILES CCCCCCCCCCCCCCCC(=O)NCCCC[C@H](NC(C)=O)C(=O)N[C@H](C(=O)N[C@@H](CCCNC(=N)N)C(=O)N[C@H](C(=O)N[C@H](C(=O)N[C@@H](Cc1c[nH]cn1)C(=O)N[C@@H](CCC(N)=O)C(=O)N[C@@H](CC(C)C)C(=O)N[C@@H](CC(C)C)C(=O)N1CCC[C@H]1C(=O)N[C@@H](CCC(=O)O)C(=O)N[C@@H](CO)C(=O)N[C@@H](CO)C(=O)N[C@@H](CC(C)C)C(=O)N[C@@H](CCCNC(=N)N)C(=O)N[C@@H](CCCCN)C(=O)N[C@@H](CCCNC(=N)N)C(=O)N[C@@H](CCCCN)C(=O)N[C@@H](CCCNC(=N)N)C(=O)N[C@@H](CO)C(=O)N[C@@H](CCCNC(=N)N)C(N)=O)C(C)C)C(C)C)[C@@H](C)CC)
- increase in the expression of HLA-DR (COLO 205 human cell line; 50 μM, human cells): 10 fold
- increase in the expression of HLA-DR (COLO 205 human cell line; 75 μM (210 μg/ml), human cell lines): 15 fold
- increase in class II CMH molecules (FIG. 12B) (COLO 205 human cell line; COLO 205, 24 hours, different concentrations): marked dose-dependent increase
- increase in the expression of class II CMH molecules (murine splenocytes; 50 μM, splenocytes freshly obtained from mice): 13 fold
- factor of increase of the expression of IA^b (murine splenocytes; 100 μM (280 μg/ml), murine cells): 18
- increase in class II CMH molecules (FIG. 12A) (murine splenocytes; murine splenocytes, 24 hours, different concentrations): marked dose-dependent increase
- cytotoxicity [1]: not cytotoxic
